# Source: BindingDB's records for doi:10.1021/jm000541z (Abbott Laboratories, 2001)
# pKi: −log10 of the molar value.
# Target: Alpha-1B adrenergic receptor (Mesocricetus auratus) (UniProt P18841)
# Assay: Binding affinity to hamster alpha-1B adrenergic receptor
# Alpha-1B adrenergic receptor (Mesocricetus auratus), sequence (P18841 whole entry, looked up): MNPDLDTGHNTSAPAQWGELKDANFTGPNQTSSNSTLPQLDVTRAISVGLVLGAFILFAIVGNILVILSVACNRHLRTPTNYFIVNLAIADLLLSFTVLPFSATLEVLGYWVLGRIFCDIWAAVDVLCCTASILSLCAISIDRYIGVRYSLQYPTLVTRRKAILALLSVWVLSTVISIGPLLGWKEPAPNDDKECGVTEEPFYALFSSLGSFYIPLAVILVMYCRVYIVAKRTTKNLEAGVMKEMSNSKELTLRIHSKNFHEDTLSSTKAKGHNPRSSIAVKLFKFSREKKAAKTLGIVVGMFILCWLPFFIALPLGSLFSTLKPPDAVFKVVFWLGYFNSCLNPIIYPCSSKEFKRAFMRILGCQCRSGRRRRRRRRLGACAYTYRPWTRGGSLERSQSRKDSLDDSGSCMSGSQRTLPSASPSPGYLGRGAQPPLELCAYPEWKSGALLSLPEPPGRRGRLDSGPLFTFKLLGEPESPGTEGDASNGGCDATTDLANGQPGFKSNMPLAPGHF
row,Compound,pKi
1,"COc1cccc2c1CC[C@H]1CN(CCn3c(=O)[nH]c4c(C)c(C)ccc4c3=O)C[C@@H]21 [3-[2-(6-Methoxy-1,3,3a,4,5,9b-hexahydro-benzo[e]isoindol-2-yl)-ethyl]-7,8-dimethyl-1H-quinazoline-2,4-dione]",8.88
2,"COc1cc2c(cc1OC)CN(CCN1C[C@@H]3CCc4c(OC)cccc4[C@@H]3C1)CC2 [2-[2-(6,7-Dimethoxy-3,4-dihydro-1H-isoquinolin-2-yl)-ethyl]-6-methoxy-2,3,3a,4,5,9b-hexahydro-1H-benzo[e]isoindole]",6.94
3,"COc1cccc2c1CC[C@H]1CN(CCn3c(=O)[nH]c4ccncc4c3=O)C[C@@H]21 [3-[2-(6-Methoxy-1,3,3a,4,5,9b-hexahydro-benzo[e]isoindol-2-yl)-ethyl]-1H-pyrido[4,3-d]pyrimidine-2,4-dione]",7.98
4,"COc1cccc2c1CC[C@H]1CN(CCn3c(=O)[nH]c4c(sc5ncc(Cl)nc54)c3=O)C[C@@H]21 [3-Chloro-7-[2-(6-methoxy-1,3,3a,4,5,9b-hexahydro-benzo[e]isoindol-2-yl)-ethyl]-5H-9-thia-1,4,5,7-tetraaza-fluorene-6,8-dione]",7.45
5,"COc1cccc2c1CC[C@H]1CN(CCn3c(=O)[nH]c4cc(C#N)ccc4c3=O)C[C@@H]21 [3-[2-(6-Methoxy-1,3,3a,4,5,9b-hexahydro-benzo[e]isoindol-2-yl)-ethyl]-2,4-dioxo-1,2,3,4-tetrahydro-quinazoline-7-carbonitrile]",8.81
6,"COc1cccc2c1CC[C@H]1CN(CCn3c(=O)[nH]c4cc([N+](=O)[O-])ccc4c3=O)C[C@@H]21 [3-[2-(6-Methoxy-1,3,3a,4,5,9b-hexahydro-benzo[e]isoindol-2-yl)-ethyl]-7-nitro-1H-quinazoline-2,4-dione]",8.48
7,"COc1cccc2c1CC[C@H]1CN(CCn3c(=O)[nH]c4cc(NC(C)=O)ccc4c3=O)C[C@@H]21 [N-{3-[2-(6-Methoxy-1,3,3a,4,5,9b-hexahydro-benzo[e]isoindol-2-yl)-ethyl]-2,4-dioxo-1,2,3,4-tetrahydro-quinazolin-7-yl}-acetamide]",9.08
8,"COc1cccc2c1CC[C@H]1CN(CCn3c(=O)[nH]c4ncccc4c3=O)C[C@@H]21 [3-[2-(6-Methoxy-1,3,3a,4,5,9b-hexahydro-benzo[e]isoindol-2-yl)-ethyl]-1H-pyrido[2,3-d]pyrimidine-2,4-dione]",8.48
9,"COC(=O)c1ccc2c(=O)n(CCN3C[C@@H]4CCc5c(OC)cccc5[C@@H]4C3)c(=O)[nH]c2c1 [3-[2-(6-Methoxy-1,3,3a,4,5,9b-hexahydro-benzo[e]isoindol-2-yl)-ethyl]-2,4-dioxo-1,2,3,4-tetrahydro-quinazoline-7-carboxylic acid methyl ester]",8.79
10,"COc1cccc2c1CC[C@H]1CN(CCn3c(=O)[nH]c4cc(-c5ccccc5)sc4c3=O)C[C@@H]21 [3-[2-(6-Methoxy-1,3,3a,4,5,9b-hexahydro-benzo[e]isoindol-2-yl)-ethyl]-6-phenyl-1H-thieno[3,2-d]pyrimidine-2,4-dione]",7.95
11,"COc1cccc2c1CC[C@H]1CN(CCn3c(=O)[nH]c4cccnc4c3=O)C[C@@H]21 [3-[2-(6-Methoxy-1,3,3a,4,5,9b-hexahydro-benzo[e]isoindol-2-yl)-ethyl]-1H-pyrido[3,2-d]pyrimidine-2,4-dione]",8.09
12,"COc1cc2c(cc1OC)NC(=O)N(CCN1C[C@@H]3CCc4c(OC)cccc4[C@@H]3C1)C2 [6,7-Dimethoxy-3-[2-(6-methoxy-1,3,3a,4,5,9b-hexahydro-benzo[e]isoindol-2-yl)-ethyl]-3,4-dihydro-1H-quinazolin-2-one]",6.72
13,"COc1cccc2c1CC[C@H]1CN(CCn3c(=O)[nH]c4ccsc4c3=O)C[C@@H]21 [3-[2-(6-Methoxy-1,3,3a,4,5,9b-hexahydro-benzo[e]isoindol-2-yl)-ethyl]-1H-thieno[3,2-d]pyrimidine-2,4-dione]",8.79
14,"COc1cccc2c1CC[C@H]1CN(CCn3c(=O)[nH]c4c(C(C)C)c(OC)sc4c3=O)C[C@@H]21 [7-Isopropyl-6-methoxy-3-[2-(6-methoxy-1,3,3a,4,5,9b-hexahydro-benzo[e]isoindol-2-yl)-ethyl]-1H-thieno[3,2-d]pyrimidine-2,4-dione]",8.64
15,"COC(=O)c1cc2[nH]c(=O)n(CCN3C[C@@H]4CCc5c(OC)cccc5[C@@H]4C3)c(=O)c2s1 [3-[2-(6-Methoxy-1,3,3a,4,5,9b-hexahydro-benzo[e]isoindol-2-yl)-ethyl]-2,4-dioxo-1,2,3,4-tetrahydro-thieno[3,2-d]pyrimidine-6-carboxylic acid methyl ester]",8.47
16,"COc1cccc2c1CC[C@H]1CN(CCn3c(=O)[nH]c4[nH]ccc4c3=O)C[C@@H]21 [3-[2-(6-Methoxy-1,3,3a,4,5,9b-hexahydro-benzo[e]isoindol-2-yl)-ethyl]-1,7-dihydro-pyrrolo[2,3-d]pyrimidine-2,4-dione]",8.59
17,"COc1cccc2c1CC[C@H]1CN(CCn3c(=O)[nH]c4c(C)c(OC)sc4c3=O)C[C@@H]21 [6-Methoxy-3-[2-(6-methoxy-1,3,3a,4,5,9b-hexahydro-benzo[e]isoindol-2-yl)-ethyl]-7-methyl-1H-thieno[3,2-d]pyrimidine-2,4-dione]",8.15
18,"COc1cccc2c1CC[C@H]1CN(CCn3c(=O)[nH]c4cnccc4c3=O)C[C@@H]21 [3-[2-(6-Methoxy-1,3,3a,4,5,9b-hexahydro-benzo[e]isoindol-2-yl)-ethyl]-1H-pyrido[3,4-d]pyrimidine-2,4-dione]",8.51
19,"COc1cc2c(cc1OC)C(=O)N(CCN1C[C@@H]3CCc4c(OC)cccc4[C@@H]3C1)CN2 [6,7-Dimethoxy-3-[2-(6-methoxy-1,3,3a,4,5,9b-hexahydro-benzo[e]isoindol-2-yl)-ethyl]-2,3-dihydro-1H-quinazolin-4-one]",7.02
20,"COc1cccc2c1CC[C@H]1CN(CCn3c(=O)[nH]c4nccnc4c3=O)C[C@@H]21 [3-[2-(6-Methoxy-1,3,3a,4,5,9b-hexahydro-benzo[e]isoindol-2-yl)-ethyl]-1H-pteridine-2,4-dione]",7.90
21,"COc1cccc2c1CC[C@H]1CN(CCn3c(=O)[nH]c4ccccc4c3=O)C[C@@H]21 [3-[2-(6-Methoxy-1,3,3a,4,5,9b-hexahydro-benzo[e]isoindol-2-yl)-ethyl]-1H-quinazoline-2,4-dione]",8.94
22,"COc1cccc2c1CC[C@H]1CN(CCn3c(=O)[nH]c4cccc(C)c4c3=O)C[C@@H]21 [3-[2-(6-Methoxy-1,3,3a,4,5,9b-hexahydro-benzo[e]isoindol-2-yl)-ethyl]-5-methyl-1H-quinazoline-2,4-dione]",8.98
23,"COc1cccc2c1CC[C@H]1CN(CCn3c(=O)[nH]c4sccc4c3=O)C[C@@H]21 [3-[2-(6-Methoxy-1,3,3a,4,5,9b-hexahydro-benzo[e]isoindol-2-yl)-ethyl]-1H-thieno[2,3-d]pyrimidine-2,4-dione]",8.68
24,"COc1cc(N)c(C(=O)NCCN2C[C@@H]3CCc4c(OC)cccc4[C@@H]3C2)cc1OC [2-Amino-4,5-dimethoxy-N-[2-(6-methoxy-1,3,3a,4,5,9b-hexahydro-benzo[e]isoindol-2-yl)-ethyl]-benzamide]",7.54

# Further lines, results first:
row,pKi,Compound
1,7.82,"COc1cc2ncn(CCN3C[C@@H]4CCc5c(OC)cccc5[C@@H]4C3)c(=O)c2cc1OC [6,7-Dimethoxy-3-[2-(6-methoxy-1,3,3a,4,5,9b-hexahydro-benzo[e]isoindol-2-yl)-ethyl]-3H-quinazolin-4-one]"
2,8.64,"COc1cccc2c1CC[C@H]1CN(CCn3c(=O)[nH]c4c(OC)cccc4c3=O)C[C@@H]21 [8-Methoxy-3-[2-(6-methoxy-1,3,3a,4,5,9b-hexahydro-benzo[e]isoindol-2-yl)-ethyl]-1H-quinazoline-2,4-dione]"
3,8.42,"COc1ccc2[nH]c(=O)n(CCN3C[C@@H]4CCc5c(OC)cccc5[C@@H]4C3)c(=O)c2c1 [6-Methoxy-3-[2-(6-methoxy-1,3,3a,4,5,9b-hexahydro-benzo[e]isoindol-2-yl)-ethyl]-1H-quinazoline-2,4-dione]"
4,8.19,"COc1cc2[nH]c(=O)n(CCN3C[C@@H]4CCc5c(OC)cccc5[C@@H]4C3)c(=O)c2cc1OC [6,7-Dimethoxy-3-[2-(6-methoxy-1,3,3a,4,5,9b-hexahydro-benzo[e]isoindol-2-yl)-ethyl]-1H-quinazoline-2,4-dione]"
5,7.79,"COc1cccc2c1CC[C@H]1CN(CCn3c(=O)[nH]c4c(C)cc(C)cc4c3=O)C[C@@H]21 [3-[2-(6-Methoxy-1,3,3a,4,5,9b-hexahydro-benzo[e]isoindol-2-yl)-ethyl]-6,8-dimethyl-1H-quinazoline-2,4-dione]"
6,8.48,"COc1cc2c(=O)n(CCN3C[C@@H]4CCc5c(OC)cccc5[C@@H]4C3)c(=O)n(C)c2cc1OC [6,7-Dimethoxy-3-[2-(6-methoxy-1,3,3a,4,5,9b-hexahydro-benzo[e]isoindol-2-yl)-ethyl]-1-methyl-1H-quinazoline-2,4-dione]"
7,9.13,"COc1cc2[nH]c(=O)n(CCN3C[C@@H]4CCc5c(OC)cccc5[C@@H]4C3)c(=O)c2s1 [6-Methoxy-3-[2-(6-methoxy-1,3,3a,4,5,9b-hexahydro-benzo[e]isoindol-2-yl)-ethyl]-1H-thieno[3,2-d]pyrimidine-2,4-dione]"
8,8.03,"COc1cc2[nH]c(=O)n(CCN3C[C@@H]4CCc5c(OC)cccc5[C@@H]4C3)c(=O)c2cc1Cl [6-Chloro-7-methoxy-3-[2-(6-methoxy-1,3,3a,4,5,9b-hexahydro-benzo[e]isoindol-2-yl)-ethyl]-1H-quinazoline-2,4-dione]"
9,8.39,"COc1cccc2c1CC[C@H]1CN(CCn3c(=O)[nH]c4cc(C)c(C)cc4c3=O)C[C@@H]21 [3-[2-(6-Methoxy-1,3,3a,4,5,9b-hexahydro-benzo[e]isoindol-2-yl)-ethyl]-6,7-dimethyl-1H-quinazoline-2,4-dione]"
10,9.18,"COc1ccc2c(=O)n(CCN3C[C@@H]4CCc5c(OC)cccc5[C@@H]4C3)c(=O)[nH]c2c1 [7-Methoxy-3-[2-(6-methoxy-1,3,3a,4,5,9b-hexahydro-benzo[e]isoindol-2-yl)-ethyl]-1H-quinazoline-2,4-dione]"
11,8.57,"COc1cccc2c1CC[C@H]1CN(CCn3c(=O)[nH]c4cc(Cl)ccc4c3=O)C[C@@H]21 [7-Chloro-3-[2-(6-methoxy-1,3,3a,4,5,9b-hexahydro-benzo[e]isoindol-2-yl)-ethyl]-1H-quinazoline-2,4-dione]"
